Data on one compound can be found in patent US10758541B2, “Formulations of milciclib and therapeutic combinations of the same for use in the treatment of cancer” (Tiziana Life Sciences PLC, priority 2017, dated 2020).

What is called IC50 is the midpoint of a concentration-inhibition curve.

Molecules are shown by their SMILES.

One data set has as its system MHCC97L cells. Nature of the data set: IC50 values by cell proliferation assay (WST-1). In kind it is cell-based. The conditions noted are these: Homo sapiens, individual inhibitor, 72 hours. The text has this: (§1) See Shailubhai, K et al. “Atiprimod is an inhibitor of cancer cell proliferation and angiogenesis.” J Exp Ther Oncol. 2004; 4: 267-279; and Choudhari et al. “Deactivation of Akt and STAT3 signaling promotes apoptosis, inhibits proliferation, and enhances the sensitivity of hepatocellular carcinoma cells to an anticancer agent, atiprimod” Molecular Cancer Therapeutics. 2007; 6: 112-121. References are incorporated herein in their entireties.
MHCC97H and MHCC97L (highly metastatic hepatocellular carcinoma cell line, derived from humans)
(§2) Cells (MHCC97H, MHCC97L, and HepG2.2.15) were cultured for 24 hours in 2% FBS and then were trypsinized, resuspended in 2% FBS and seeded in a rat collagen coated 96-well plate at a density of 10,000 cells/100 μl/well, a day before the experiment and cultured at 37° C. in 5% CO2. The cells were treated the next day with milciclib, sorafenib, regorafenib, sunitinib, and lenvatinib, individually or in combination in DMEM/F12+2% FBS+for 72 hours prior to the addition of WST-1 reagent. About 100 μL media was added to control well. After cells had been cultured for 72 hours with different drug concentrations, cells were washed 3 times with sterile 1× Phosphate buffered saline (PBS). To determine cell proliferation by the colorimetric test, 10 μL of WST-1 reagent (Sigma Aldrich, St Louis, Mo.) was added in 100 μL cell culture media and incubated for 2 hours in 5% CO2 at 37° C. At the end of incubation period, the plate was placed on a plate shaker for 1 minute and was monitored using a spectrophotometer at an optical density of 450 nm with a reference wavelength of 600 nm using Tecan F200 and iControl software. IC50 values were determined using GraphPad Prism (GraphPad Software, La Jolla, Calif.). Each experiment was performed in duplicate and repeated 2 times.
In general terms: Formazan colour is commonly taken as a measure of viable cells.

A further data set has as its system HepG2.2.15 cells. In words: IC50 values by cell proliferation assay (WST-1). The class given is cell-based. To be noted: Homo sapiens, HepG2.2.15; individual inhibitor, 72 hours, WST-1; read-out: HepG2.2.15 IC50.
From the text: as §1
HepG2.2.15 cells are derived from the human hepatoblastoma cell line HepG2.
as §2

The test system of the next data set is Alphafetoprotein (AFP). Nature of the data set: AFP ELISA assay in MHCC97H cells. The class given is cell-based, human. The conditions noted are these: 1.3 μM, 72 hours, vs vehicle control. The procedure: (§3) MHCC97H cells were seeded at a density of 500,000 cells/2 mL/well on a 6 well culture plate and incubated overnight at 37° C. in a humidified CO2 incubator. Cells were then treated with 1.3 μM milciclib or vehicle in DMEM/F12+2% FBS for 72 hours. Subsequently, cells were lysed in RIPA buffer, the supernatant was collected and used to perform ELISA assay as per the manufacturer's instructions. In orthotopic HCC mouse model, levels of serum marker alpha-fetoprotein (AFP) were determined on day 0, 6, 12, 18, 24, 30, 36, 42 and 48 using High Range AFP kit as per manufacturer's instructions.
(In general: In an ELISA, binding on a coated surface is turned into a signal by an enzyme label.)

Data set [1] deals with MHCC97H human liver cells. In words: Orthotopic tumor induction in athymic nude mice. The class given is in vivo. The conditions noted are these: oral, once daily day 12 to 47; milciclib 30 mg/kg/day, sorafenib 20 mg/kg/day; vs vehicle. How it is done: Mouse experiments were performed in accordance with the guidelines approved by the Institutional Animal Care and use committee of Washington Biotechnology Inc (Baltimore, Md.) where the studies were conducted. (FIG. 66) Test agents were dissolved in chremophor/ethanol (1:1) to make a 5× stock solution and diluted in water when used. MHCC97H human liver cells (5×106) in PBS were mixed with 20% Matrigel and then inoculated orthotopically into the right flank of female Balb/c nude mice. Seven days after cell inoculation, the mice were randomly allocated to either the treatment group (n=12) or the control group (n=12) based on the levels of AFP. The daily animal inspection was conducted for general appearance and tumor growth. Milciclib (30 mg/Kg), sorafenib (20 mg/Kg), milciclib+sorafenib or the corresponding vehicle was given orally to individual mice once daily from day 12 until day 47. After completion of the treatment at day 48, animals were euthanized and blood, liver tissues and tumor were collected for gene expression and mechanistic assays. Liver tumors developed 100% of animals challenged with orthotopic MHCC97H injection.

In a further data set the test system is alpha-fetoprotein (AFP). Nature of the data set: Serum AFP in orthotopic HCC mouse model. The class given is in vivo, mice. To be noted: milciclib 30 mg/kg, sorafenib 20 mg/kg, oral, vs vehicle. The procedure: as §3
Mouse experiments were performed in accordance with the guidelines approved by the Institutional Animal Care and use committee of Washington Biotechnology Inc (Baltimore, Md.) where the studies were conducted. (FIG. 66) Test agents were dissolved in chremophor/ethanol (1:1) to make a 5× stock solution and diluted in water when used. MHCC97H human liver cells (5×106) in PBS were mixed with 20% Matrigel and then inoculated orthotopically into the right flank of female Balb/c nude mice. Seven days after cell inoculation, the mice were randomly allocated to either the treatment group (n=12) or the control group (n=12) based on the levels of AFP. The daily animal inspection was conducted for general appearance and tumor growth. […]

A further data set deals with miR-221 and miR-222. In words: miRNA isolation and expression analysis of tumor tissues. The class given is in vivo. To be noted: tumor tissues from orally treated mice, vs vehicle. How it is done:
miRNA from athymic nude mice following treatment with vehicle, milciclib, sorafenib, or milciclib+sorafenib was isolated from Total RNA using the TaqMan Advanced miRNA cDNA Synthesis Kit (Thermo Fisher Scientific, Rockford, Ill.) according to the manufacturer's instructions. miRNA-221 and miR-222 quantifications were performed in duplicates using TaqMan Advanced miRNA Assay (Thermo Fisher Scientific, Rockford, Ill.) with a sample dilution of 1:10. The PCR mixture was incubated at 95° C. for 20 seconds, followed by 40 cycles of 95° C. for 3 seconds and 60° C. for 30 seconds. Results were normalized to hsa-miR-192-5p as reference miRNA and the relative gene expression calculated as 2−ΔCT was expressed as fold increase over control samples.
Tumor tissues from mice treated with vehicle, sorafenib, milciclib, milciclib+sorafenib and normal liver tissues from naïve untreated mice were collected and levels of miR-221 and miR-222 were determined. The levels of both of miR-221 and miR-222 were elevated in tumors from vehicle treated mice.

The subject of data set [2] is p27, p21, p57, p53, cyclin D1, cyclin E2, MKI67, c-Myc, CdC6. Nature of the data set: Quantitative real-time PCR gene expression in orthotopic HCC tumors. In kind it is in vivo. The conditions noted are these: orthotopic HCC mice. How it is done:
Total RNA was extracted using the RNeasy Mini kit according to the manufacturer's instructions (Qiagen, Germantown, Md.). RNA was quantified using Nanodrop Lite (Thermo Scientific, Wilmington, Del.). Complementary DNA (cDNA) synthesis was performed by reverse transcription of total RNA using the High Capacity cDNA Reverse Transcription Kit (Thermo Fisher Scientific, Rockford, Ill.). Real-time quantitative PCR was employed using the LightCycler 480 Instrument II (Roche Diagnostics Corporation, Indianapolis, Ind.) using TaqMan Fast Advanced Master Mix and TaqMan Gene Expression probes for human p27, cyclin E2, cyclin A2, CdC6, MKI67, cyclin D1, p21, p57, c-Myc and p53 (Thermo Fisher Scientific). The expression of target genes was normalized to the housekeeping gene GAPDH in each sample. All samples were run in duplicate and the relative gene expression calculated as 2−ΔCT was expressed as fold increase over control samples.

For data set [3] the following is noted: phase I, cited from earlier work.

Consider `CNC(=O)c1nn(C)c2c1C(C)(C)Cc1cnc(Nc3ccc(N4CCN(C)CC4)cc3)nc1-2` [MILCICLIB, N,1,4,4-tetramethyl-8-((4-(4-methylpiperazin-1-yl)phenyl)amino)-4,5-dihydro-1H-pyrazolo[4,3-h]quinazoline-3-carboxamide], for which the IC50 in the data set with MHCC97L cells came out at 1000 nM. Further, the half-inhibitory concentration (IC50) with HepG2.2.15 cells turned out to be 1160 nM. Besides, the AFP levels result with Alphafetoprotein (AFP) is recorded as “Appreciably lower”. In data set [1], this compound yielded a reducing tumor growth of 20%. For the same compound, the “serum AFP levels” value with alpha-fetoprotein (AFP) is “Significantly lower”. Besides, the “expression of miR-221 and miR-222” value in the data set with miR-221 and miR-222 is on record as “significantly reduced”. In data set [2] (oral administration), the “expression of cell proliferation genes such as MKI67, cdc6, c-Myc” value is given as “downregulated”; the “expression of cyclins such as cyclin E2 and cyclin D1” value is “downregulated”. Also, the “expression of tumor suppressors such as p27, p21, p53 and p57” value in data set [2] (oral treatment) is recorded as “upregulated”. In addition, the tolerability entry in data set [3] (oral treatment, patients with advanced solid malignancies) was “well-tolerated”. Also, the RP2D in data set [3] (oral) is recorded as 150 mg/day. In data set [3] (reversible upon treatment suspension), the major toxicity profile result was “tremors and gastrointestinal toxicity”.
